# Test results: patent publication US20090074850A1, “USE OF A TOPICAL COMPOSITION CONTAINING EPIDERMAL GROWTH FACTOR (EGF) FOR DIABETIC FOOT AMPUTATION PREVENTION” (priority 2005, published 2009)
# Marks after values point to notes of the source that are not given here.
# Tests used:
# [1] = tested on: diabetic foot ulcers, grade IV and V lesions with a severe ischemic component; settings: EGF infiltrated in and around lesions with hypodermic needles; cited from earlier work
# [2] = Concentration of EGF in the viable tissue deep below the cutaneous lesions (ELISA); format: in vivo, Wistar rats; settings: tissue 1 cm below lesion
# Experimental: To determine the concentration of EGF, histological cuts of the tissue deep below (1 cm) the cutaneous lesions were performed 20 min, 1 h, 4 h, 8 h, 16 h and 24 h after the induction of lesions. The tissue was homogenized into a phosphate-buffered saline solution. The concentration of EGF was determined by an Enzyme Linked Immunosorbent Assay (ELISA).
# [3] = tested on: controlled acute ulcers in male Wistar rats; experiment: Experimental model of controlled acute lesions; format: in vivo
# Experimental: The following experiment was performed with the aim of evaluating the cicatrisation effect of the new pharmaceutical formulation for topical use, which is based on EGF-loaded (deformable or traditional) liposomes, in acute lesions of satisfactory prognosis.
# (§1) Experimental Biomodel Male Wistar rats with a body weight of 225-250 grams. Animal were maintained in controlled areas of the animal facility at CIGB under a constant illumination schedule of 12×12 hours, air change cycles, and free access to the diet. The rats were individually housed into T3 boxes with replacement of the bedding every 48 hours after its sterilization. Induction of ulcers: Animals were anesthetized by intraperitoneal injection of ketamine/xylazine. The back of rats comprising the area from the retroscapular space up to the sacrum was mechanically and chemically depilated. This region was aseptisized with a solution of povidone-iodine and isopropyl alcohol. The area over the skin selected for the induction of ulcers was marked with Chinese ink in order to induce circular, total width lesions with the aid of 9 mm-diameter biotomes (AcuDrem, Fl, USA). […] Lesions were washed with a sterile saline solution and their inner border was delineated with permanent ink for later calculation of wound area at time zero. The lesions of all animals were hygienized daily with 70% ethanol and sterile saline before the application of any treatment.
# (§2) The ulcers created in the animals were randomly assigned to the following experimental treatment groups by using an input order/group crossmatching table:
# (§3) Group I—no treatment. Group II—placebo (formulation of empty deformable liposomes—without EGF) applied topically.
# (§4) Group III—infiltration of an EGF solution containing 75 micrograms per milliliter by using hypodermic needles. Infiltrations were performed on the border and the bottom of wounds
# Group IV—treatment with the formulation of traditional liposomes containing 25 micrograms of EGF per gram of substance applied topically Group V—treatment with the formulation of traditional liposomes containing 75 micrograms of EGF per gram of substance applied topically Group V—treatment with the formulation of deformable liposomes containing 25 micrograms of EGF per gram of substance applied topically Group VII—treatment with the formulation of deformable liposomes containing 75 micrograms of EGF per gram of substance applied topically
# (§5) Each group consisted of 10 rats; therefore 60 wounds per group were studied. Treatments were performed daily, after sedation of animals with diazepam administrated by the intra-peritoneal route.
# (§6) The lesions were traced on transparent acetate sheets for calculating the kinetics of the wounds contraction over the following times: Time 0—represents 100% of opened lesion area and 0% wound contraction, Time 1—72 hours after the induction of lesions, Time 2—five days after the induction of lesions, Time 3—seven days after the induction of lesions, Time 4—nine days after the induction of lesions. The ninth day was set as the end of this study, on which the animals were sacrificed, according to previous experiences on the kinetics of the spontaneous cicatrisation of these lesions. The images with traced lesions borders were digitized. The area of lesions and the percent of contraction were calculated by using the image analysis software DIGIPAT. Statistical analyses of each parameter were performed with the SPSS package by using the non-parametric Mann Whitney U test, a signification level of p<0.05 was assumed.
# Animals were sacrificed by intra-peritoneal injection with an overdose of sodium pentobarbital (250 mg/kg). Lesion were dried up from the panniculus carnosus and fixed in 10% neutral formalin for later inclusion in paraffin. The hematoxylin/eosin, van Giesson's and Masson's trichromic stains were used. For each group, the number of animals with 100% epithelization of the lesion, and with a stratified and differentiated epidermis was determined. […]
# [4] = tested on: chronic ulcers in male Wistar rats treated with methylglyoxal; experiment: Experimental model of chronic cutaneous ulcers (methylglyoxal-treated rats); format: in vivo
# Experimental: The following experiment was aimed at evaluating the cicatrisation effect of the new pharmaceutical formulation of topical use that is based on traditional or deformable liposomes containing EGF in chronic lesions of poor prognosis, which simulate lesions in diabetic patients.
# Experimental Biomodel Male Wistar rats with a body weight of 225-250 grams. Animal were maintained in controlled areas of the animal facility at CIGB under a constant illumination schedule of 12×12 hours, air change cycles, and free access to the diet. The rats were individually housed into T3 boxes with replacement of the bedding every 48 hours after its sterilization. The animals had previously been treated for two months with a 0.01% methylglyoxal solution to create a glycosylation environment similar to that occurring in a diabetic patient of long term evolution. Among other organic damages, this leads to a slow down of the granulation and remodelation of wounds (Berlanga J., Cibrian D., et al. (2005) Methylglyoxal administration induces diabetes-like microvascular changes and perturbs the healing process of cutaneous wounds. Clin Sci (Lond). 109(1):83-95).
# as §1, with “Induction” for “Experimental Biomodel Male Wistar rats with a body weight of 225-250 grams. Animal were maintained in controlled areas of the animal facility at CIGB under a constant illumination schedule of 12×12 hours, air change cycles, and free access to the diet. The rats were individually housed into T3 boxes with replacement of the bedding every 48 hours after its sterilization. Induction”
# as §2, §3, §4
# Group IV—treatment with the formulation of traditional liposomes containing 25 micrograms of EGF per gram of substance applied topically Group V—treatment with the formulation of traditional liposomes containing 75 micrograms of EGF per gram of substance applied topically Group VI—treatment with the formulation of deformable liposomes containing 25 micrograms of EGF per gram of substance applied topically Group VII—treatment with the formulation of deformable liposomes containing 75 micrograms of EGF per gram of substance applied topically
# as §5
# as §6, with “[…],” for “Time 4—nine days after the induction of lesions. The ninth day was set as the end of this study,”, “assumed. […]” for “assumed.”
substance,measurement,setting,value
"epidermal growth factor (EGF) [Free EGF, non-encapsulated epidermal growth factor]",efficacy,[1],greater than 50%
Group III: infiltration of an EGF solution containing 75 micrograms per milliliter by using hypodermic needles,EGF concentration,[2]; 20 min,27.55 ± 0.14 µg/mL
same,EGF concentration,[2]; 1 h,5.47 ± 0.1 µg/mL
same,EGF concentration,[2]; 4 h,1.55 ± 0.1 µg/mL
same,EGF concentration,[2]; 8 h,0.26 ± 0.04 µg/mL
same,EGF concentration,[2]; 16 h,0.07 ± 0.01 µg/mL
same,EGF concentration,[2]; 24 h,0.02 ± 0.005 µg/mL
same,No. wounds with 100% epithelization,[3]; 60 wounds per group,37
same,No. wounds with a mature epithelium,[3]; 60 wounds per group,25
same,Contraction (%),[3]; Time 1 (72 hours after induction of lesions),12.3 ± 2.1*^a %
same,Contraction (%),[3]; Time 2 (five days),23 ± 2.7*^a %
same,Contraction (%),[3]; Time 3 (seven days),67.5 ± 3.1*^a %
same,Contraction (%),[3]; Time 4 (nine days),76.5 ± 2.2*^a %
same,% area covered by mature granulation tissue,"[3]; Time 4, 60 wounds per group",66.7 ± 3.22%
same,No. wounds with 100% epithelization,[4]; 60 wounds per group,16
same,No. wounds with a mature epithelium,[4]; 60 wounds per group,11
same,Contraction (%),[4]; Time 1,6.55 ± 1.14%
same,Contraction (%),[4]; Time 2,10.25 ± 3.1 %
same,Contraction (%),[4]; Time 3,25 ± 2.7 %
same,Contraction (%),[4]; Time 4,53.5 ± 3.5 %
same,% area covered by mature granulation tissue,"[4]; Time 4, 60 wounds per group",41.7 ± 2.25%
same,Contraction (%),[4]; Time 6,61.7 ± 2.14 %
